One data set relates to MDA-MB-435. On the set-up: method as in PMID 23538397. Particulars: cited from earlier work.
The subject of data set [1] is A549, HCT116 and MCF-7 cell lines. On the set-up: method as in doi:10.1016/j.cclet.2014.05.043. Particulars: cell line not stated; cited from earlier work.
The subject of a further data set is MCF-7. In words: MTT anti-proliferative test, MCF-7. Type of data set: cell-based, human. As to conditions: for IC50: Homo sapiens, MCF7, MTT. The source says:
(§1) The MCF-10A cell line (normal human mammary epithelial cells) served as a reference control.
(§2) All breast cell lines (MCF-10A, MCF-7, and MDA-MB-231) were purchased from the American Type Culture Collection—ATCC (Manassas, VA, USA). The MCF-7 and MDA-MB-231 were cultivated in Dulbecco’s modified Eagle’s medium (DMEM) and supplemented with 10% fetal bovine serum (FBS), 1% sodium pyruvate, and 1% MEM non-essential amino acids (NEAA) without antibiotics. The non-tumorigenic breast cell line (MCF-10A) was cultivated in DMEM medium (Sigma-Aldrich, St. Louis, MO, USA) and supplemented with 10% FBS, 1% sodium pyruvate, 1% non-essential amino acids (NEAA), 20 ng/mL human epithelia growth factor (hEGF), 10 μg/mL insulin, and 0.5 μg/mL hydrocortisone without antibiotics. All cell lines were maintained in a humidified atmosphere, with 5% CO2 at 37 °C.
(§3) Using the standard MTT-dye reduction assay described by Mosmann, the anti-proliferative activity was tested. The method is based on the metabolism of the tetrazolium salt MTT to insoluble formazan. The formazan absorption was registered using a microplate reader at λ = 540 nm. The measured absorption is an indicator of cell viability and metabolic activity. Anti-proliferative activities were expressed as IC50 values (concentrations required for 50% inhibition of cell growth), calculated using non-linear regression analysis (GraphPad Software, San Diego, CA, USA).
For orientation: Formazan colour is commonly taken as a measure of viable cells.

The next data set deals with BALB 3T3 cells. In words: in vitro 3T3 NRU test, phototoxicity. Particulars: for IC50: Mus musculus, light or radiation study. Type of data set: cell-based, mouse. As for the experimental part:
(§4) Compounds 2–5 were studied for cytotoxicity/phototoxicity by an in vitro 3T3 NRU-test. The cell line BALB 3T3, clone A31 (mouse embryo fibroblasts), was incubated with the test compounds at a concentration from 15 to 4000 µg/mL for 24 h at 37 °C, 5% CO2, and 95% humidity. The cytotoxicity and phototoxicity were expressed in percentages relative to the negative control determined. […] Based on the dose–response curves, the CC50/PC50 values (50% cytotoxic/phototoxic concentration) were calculated by nonlinear regression analysis (Table 1). The CC50 values can be used to calculate the PIF (photo-irritancy factor) for each test compound according to the following formula: PIF = CC50/PC50.
(§5) BALB/3T3 cells were cultured in 75 cm^2 tissue culture flasks in DMEM, 10% FBS, 2 mM glutamine, and antibiotics (penicillin 100 U/mL and streptomycin-100 µg/mL) at 37 °C, 5% CO2, and 90% relative humidity. Cytotoxicity/phototoxicity was assessed by a validated BALB/3T3 clone A31 neutral red uptake assay (3T3 NRU test). Briefly, cells were plated in a 96-well microtiter plate at a density of 1 × 10^4 cells/100 µL/well and incubated for 24 h. A wide concentration range was applied for the test compounds. For the phototoxicity tests, 96-well plates were irradiated with a dose of 2.4 J/cm^2, and the cells were incubated for an additional 24 h. After treatment with neutral red medium, washing, and treatment with the ethanol/acetic acid solution, the absorption was measured on a TECAN microplate reader (TECAN, Grödig, Austria) at a wavelength of 540 nm. The light source which we used was a light-emitting diode (LED) matrix—an artificial solar light simulator Helios-iO, model LE-9ND55-H—5500K (SERIC Ltd., Tokyo, Japan).
Cytotoxicity/phototoxicity were expressed as CC50/PC50 values (concentrations required for 50% cytotoxicity/phototoxicity), calculated using non-linear regression analysis (GraphPad Software GraphPad Prism 9.5.1, San Diego, CA, USA). The CC50 values were used to calculate the PIF (photo-irritancy factor) for each test substance, according to the following formula:
PIF = Cytotoxicity (CC50)/Phototoxicity (PC50)

A further data set concerns MCF-10A. In words: MTT anti-proliferative test, MCF-10A. The format is cell-based. Particulars: Homo sapiens.
From the text: as §1, §2, §3

The next data set concerns MDA-MB-231. In words: MTT anti-proliferative test, MDA-MB-231. Type of data set: cell-based, human.
From the text: as §1, §2, §3

Data set [2] can be described thus: in vitro 3T3 NRU test, cytotoxicity. The format is cell-based, mouse. As to conditions: mouse, BALB/3T3 clone A31 cells (mouse embryo fibroblasts). The method, then: as §4, §5
Cytotoxicity/phototoxicity were expressed as CC50/PC50 values (concentrations required for 50% cytotoxicity/phototoxicity), calculated using non-linear regression analysis (GraphPad Software GraphPad Prism 9.5.1, San Diego, CA, USA). The CC50 values were used to calculate the PIF (photo-irritancy factor) for each test substance, according to the following formula: […]

Read-outs that look alike come from different tables or passages of the source.

On to `Cc1sc2nc(NCc3ccccc3)[nH]c(=O)c2c1C` [2-(benzylamino)-5,6-dimethylthieno[2,3-d]pyrimidin-4(3H)-one], for which the “growth percent (GP)” value with MDA-MB-435 is on record as −31.02%.
By IC50 is commonly meant the concentration at which inhibition is half-maximal. As for `Cc1cc2c(OCc3cc(-c4ccc(Cl)cc4)no3)ncnc2s1` [6-methyl-4-{[3-(4-chlorophenyl)-isoxazol-5-yl-]-methoxy}-thieno[2,3-d]pyrimidine], the half-inhibitory concentration (IC50) in data set [1] is 0.00421 µM.
With `N.N.[Cl][Pt][Cl]` [Cisplatin, reference compound], in the data set on MCF-7 (tumor cell line not stated, paragraph on MCF-7), the “selective index in the positive control” value is 25.
For orientation: melting point means the temperature of the solid-liquid transition. Regarding `CCOC(=O)c1sc2nc(CCCl)nc(N)c2c1C` [Compound 3, Ethyl 4-Amino-2-(2-Chloroethyl)-5-Methylthieno[2,3-d] Pyrimidine-6-Carboxylate], the melting point was 163 to 165 °C. Also, the IC50 in the data set on BALB 3T3 cells (BALB 3T3, irradiated 2.4 J/cm^2 (PC50), read-out: IC50 of Mean ± SD, Phototoxicity) amounted to 545 ± 40.1 µg/mL. In addition, in the data set with BALB 3T3 cells (BALB 3T3, irradiated, value in brackets, read-out: IC50, Phototoxicity (converted)), the IC50 is 1900 µM. In addition, in the data set on BALB 3T3 cells (PIF = CC50/PC50, <2 not phototoxic), the “PIF (photo-irritancy factor)” value was 1.2. The half-maximal inhibitory concentration (IC50) with MCF-10A (read-out: IC50 MCF-10A (converted)) is 100 µM. In addition, the IC50 in the data set with MCF-10A (read-out: IC50 of Mean ± SD, Anti-Proliferative Activity MCF-10A) came to 45.3 ± 3.5 µg/mL. Moreover, the concentration for half-maximal inhibition (IC50) in the data set with MDA-MB-231 (Homo sapiens, MDA-MB-231, MTT, read-out: IC50 MDA-MB-231 (converted)) was 400 µM. Besides, the 50% inhibitory concentration (IC50) with MDA-MB-231 (Homo sapiens, MDA-MB-231, MTT, read-out: IC50 of Mean ± SD, Anti-Proliferative Activity MDA-MB-231) was 131 ± 3 µg/mL. Also, the “SI (selective index) MDA-MB-231” value with MDA-MB-231 (IC50 MCF-10A/IC50 MDA-MB-231) was 0.3. Further, the IC50 with MDA-MB-231 (MTT, read-out: IC50 MDA-MB-231 (converted)) is 440 µM. In addition, the IC50 at 24 h in data set [2] (BALB 3T3, 24 h, NRU, no irradiation (CC50), read-out: IC50 of Mean ± SD, Cytotoxicity) turned out to be 674 ± 31.8 µg/mL. The half-inhibitory concentration (IC50) at 24 h in data set [2] (BALB 3T3, value in brackets, read-out: IC50, Cytotoxicity (converted)) is 2200 µM. Besides, the IC50 in the data set with MCF-7 (read-out: IC50 MCF-7 (converted)) was 45 µM. Moreover, in the data set on MCF-7 (read-out: IC50 MCF-7 (text)), the IC50 was found to be 13.4 µg/mL. The half-inhibitory concentration (IC50) in the data set with MCF-7 (read-out: IC50 of Mean ± SD, Anti-Proliferative Activity MCF-7) came to 13.4 ± 0.8 µg/mL. Also, the “SI (selective index) MCF-7” value with MCF-7 (IC50 MCF-10A/IC50 MCF-7) was found to be 3.4.

Source of the values: publication PMC10489817, “2-Alkyl-Substituted-4-Amino-Thieno[2,3-d]Pyrimidines: Anti-Proliferative Properties to In Vitro Breast Cancer Models” (Molecules, 2023).
